The values that follow come from patent publication US9078851B2, “Composition for preventing or treating a spinal cord injury” (UNIVERSITY-INDUSTRY COOPERATION GROUP OF KYUNG HEE, priority 2009, dated 2015).

The subject of the test is caspase-3. Briefly: Western blot of cleaved caspase-3 in spinal cord tissue. In kind it is in vivo, rat. As to conditions: tail vein injection, one day and five days after injury. How it is done:
For the present experiment, male white mice (Sprague-Dawley 240-250 g, 7 weeks, 10 mice) were under general anesthetics by an intraperitoneal injection of Ketamin (80 mg/kg, Yuhan Corporation) and Rompun (7.4 mg/kg, Bayer Korea Corporation). Laminectomy was performed at spine T9-10 level to expose a spinal cord keeping intact dura. And then, rat was put on Spinal cord dropping device (NYU); spine processes at T8 and T11 sites were fixed by using a clamp, respectively; then, a rod (diameter 2 mm, weight 10 g) was dropped from 25 mm height vertical to dorsal part of spinal cord followed by suturing injury site muscle and skin. The rat of Sham-operated control group was performed only laminectomy at same area without damaging spinal cord injury (marked by ‘sham” in figures; hereinafter, the same as above). […]
(2) Substance P or saline (the same volume without Substance P) was injected to a tail vein of mice, respectively at immediately, 1 d, 2 ds after a spinal cord injury, using the same method as (1) of Example 1. […] The amounts of proteins in supernatant were determined by using BCA assay (Pierce). […] At this time, β-Tubulin was used as an inner comparing group, and each result were determined by performing four independent experiments.
For orientation: In western blotting, separated proteins are transferred to a membrane and probed.

In the case of Substance P, the “activation of caspase-3” value is “significantly decreased”.
